Source: ChEMBL document CHEMBL5154747, “Discovery of new carbonic anhydrase IX inhibitors as anticancer agents by toning the hydrophobic and hydrophilic rims of the active site to encounter the dual-tail approach” (Eur J Med Chem, 2022)

Experiments:
Format in all cases: functional
HCC 2998 = assay: Anticancer activity against human HCC 2998 cells assessed as cell growth inhibition incubated for 48 hrs by SRB assay
RXF 393 = assay: Anticancer activity against human RXF 393 cells assessed as cell growth inhibition incubated for 48 hrs by SRB assay
PC-3 = assay: Anticancer activity against human PC-3 cells assessed as cell growth inhibition incubated for 48 hrs by SRB assay
Malme-3M = assay: Anticancer activity against human Malme-3M cells assessed as cell growth inhibition incubated for 48 hrs by SRB assay
MDA-MB-468 = assay: Anticancer activity against human MDA-MB-468 cells assessed as cell growth inhibition incubated for 48 hrs by SRB assay
HOP-92 = assay: Anticancer activity against human HOP-92 cells assessed as cell growth inhibition incubated for 48 hrs by SRB assay
SF-539 = assay: Anticancer activity against human SF-539 cells assessed as cell growth inhibition incubated for 48 hrs by SRB assay
MCF7 = assay: Anticancer activity against human MCF7 cells assessed as cell growth inhibition incubated for 48 hrs by SRB assay
RPMI-8226 = assay: Anticancer activity against human RPMI-8226 cells assessed as cell growth inhibition incubated for 48 hrs by SRB assay
HCT-116 = assay: Anticancer activity against human HCT-116 cells assessed as cell growth inhibition incubated for 48 hrs by SRB assay
SK-OV-3 = assay: Anticancer activity against human SK-OV-3 cells assessed as cell growth inhibition incubated for 48 hrs by SRB assay
HT-29 = assay: Anticancer activity against human HT-29 cells assessed as cell growth inhibition incubated for 48 hrs by SRB assay
TK-10 = assay: Anticancer activity against human TK-10 cells assessed as cell growth inhibition incubated for 48 hrs by SRB assay
HOP-62 = assay: Anticancer activity against human HOP-62 cells assessed as cell growth inhibition incubated for 48 hrs by SRB assay
MDA-MB-231 = assay: Anticancer activity against human MDA-MB-231 cells assessed as cell growth inhibition incubated for 48 hrs by SRB assay
COLO 205 = assay: Anticancer activity against human COLO 205 cells assessed as cell growth inhibition incubated for 48 hrs by SRB assay
OVCAR-5 = assay: Anticancer activity against human OVCAR-5 cells assessed as cell growth inhibition incubated for 48 hrs by SRB assay
HL-60(TB) = assay: Anticancer activity against human HL-60(TB) cells assessed as cell growth inhibition incubated for 48 hrs by SRB assay
UACC-62 = assay: Anticancer activity against human UACC-62 cells assessed as cell growth inhibition incubated for 48 hrs by SRB assay
CAKI-1 = assay: Anticancer activity against human CAKI-1 cells assessed as cell growth inhibition incubated for 48 hrs by SRB assay
NCI-H226 = assay: Anticancer activity against human NCI-H226 cells assessed as cell growth inhibition incubated for 48 hrs by SRB assay
IGROV-1 = assay: Anticancer activity against human IGROV-1 cells assessed as cell growth inhibition incubated for 48 hrs by SRB assay
SF-295 = assay: Anticancer activity against human SF-295 cells assessed as cell growth inhibition incubated for 48 hrs by SRB assay
SNB-75 = assay: Anticancer activity against human SNB-75 cells assessed as cell growth inhibition incubated for 48 hrs by SRB assay
NCI-H522 = assay: Anticancer activity against human NCI-H522 cells assessed as cell growth inhibition incubated for 48 hrs by SRB assay
SF-268 = assay: Anticancer activity against human SF-268 cells assessed as cell growth inhibition incubated for 48 hrs by SRB assay
A498 = assay: Anticancer activity against human A498 cells assessed as cell growth inhibition incubated for 48 hrs by SRB assay
Hs-578T = assay: Anticancer activity against human Hs-578T cells assessed as cell growth inhibition incubated for 48 hrs by SRB assay
BT-549 = assay: Anticancer activity against human BT-549 cells assessed as cell growth inhibition incubated for 48 hrs by SRB assay
U-251 = assay: Anticancer activity against human U-251 cells assessed as cell growth inhibition incubated for 48 hrs by SRB assay
DU-145 = assay: Anticancer activity against human DU-145 cells assessed as cell growth inhibition incubated for 48 hrs by SRB assay
SK-MEL-2 = assay: Anticancer activity against human SK-MEL-2 cells assessed as cell growth inhibition incubated for 48 hrs by SRB assay
SW-620 = assay: Anticancer activity against human SW-620 cells assessed as cell growth inhibition incubated for 48 hrs by SRB assay
NCI-H23 = assay: Anticancer activity against human NCI-H23 cells assessed as cell growth inhibition incubated for 48 hrs by SRB assay
CCRF-CEM = assay: Anticancer activity against human CCRF-CEM cells assessed as cell growth inhibition incubated for 48 hrs by SRB assay
T47D = assay: Anticancer activity against human T47D cells assessed as cell growth inhibition incubated for 48 hrs by SRB assay
K562 = assay: Anticancer activity against human K562 cells assessed as cell growth inhibition incubated for 48 hrs by SRB assay
MOLT-4 = assay: Anticancer activity against human MOLT-4 cells assessed as cell growth inhibition incubated for 48 hrs by SRB assay
SK-MEL-28 = assay: Anticancer activity against human SK-MEL-28 cells assessed as cell growth inhibition incubated for 48 hrs by SRB assay
[1] = read-out: LC50 (the source's name)

Compound: NS(=O)(=O)c1ccc(Nc2nc(N/N=C/c3ccc(C(F)(F)F)cc3)nc(Nc3ccccc3)n2)cc1
- GI50 (HCC 2998): 2.97 µM
- CC50 (HCC 2998; [1]): 46.4 µM
- GI50 (RXF 393): 1.82 µM
- CC50 (RXF 393; [1]): 35.5 µM
- GI50 (PC-3): 2.8 µM
- CC50 (PC-3; [1]): 78.5 µM
- GI50 (Malme-3M): 1.87 µM
- CC50 (Malme-3M; [1]): 8.15 µM
- GI50 (MDA-MB-468): 1.73 µM
- CC50 (MDA-MB-468; [1]): 8.63 µM
- GI50 (HOP-92): 2.38 µM
- CC50 (HOP-92; [1]): 39.8 µM
- GI50 (SF-539): 1.86 µM
- CC50 (SF-539; [1]): 9.61 µM
- GI50 (MCF7): 2.18 µM
- LC50 (MCF7): 64.8 µM
- GI50 (RPMI-8226): 2.77 µM
- LC50 (concentration killing 50% of cells) (RPMI-8226): > 100 µM
- GI50 (HCT-116): 3.1 µM
- LC50 (concentration killing 50% of cells) (HCT-116): 64 µM
- GI50 (SK-OV-3): 3.66 µM
- LC50 (SK-OV-3): > 100 µM
- GI50 (HT-29): 2.44 µM
- CC50 (HT-29; [1]): 50.1 µM
- GI50 (TK-10): 3.45 µM
- CC50 (TK-10; [1]): 33.7 µM
- GI50 (HOP-62): 2.15 µM
- CC50 (HOP-62; [1]): 69.7 µM
- GI50 (MDA-MB-231): 2.31 µM
- LC50 (concentration killing 50% of cells) (MDA-MB-231): 33.7 µM
- GI50 (COLO 205): 1.86 µM
- CC50 (COLO 205; [1]): 10.9 µM
- GI50 (OVCAR-5): 2.96 µM
- CC50 (OVCAR-5; [1]): 39.9 µM
- GI50 (HL-60(TB)): 3.59 µM
- CC50 (HL-60(TB); [1]): > 100 µM
- GI50 (UACC-62): 2.35 µM
- LC50 (UACC-62): 16.2 µM
- GI50 (CAKI-1): 3.05 µM
- CC50 (CAKI-1; [1]): 51.9 µM
- GI50 (NCI-H226): 2.45 µM
- CC50 (NCI-H226; [1]): > 100 µM
- GI50 (IGROV-1): 2.64 µM
- CC50 (IGROV-1; [1]): 53.8 µM
- GI50 (SF-295): 1.92 µM
- CC50 (SF-295; [1]): 8.63 µM
- GI50 (SNB-75): 2.05 µM
- LC50 (concentration killing 50% of cells) (SNB-75): 37.5 µM
- GI50 (NCI-H522): 2.66 µM
- CC50 (NCI-H522; [1]): 87.1 µM
- GI50 (SF-268): 3.51 µM
- LC50 (concentration killing 50% of cells) (SF-268): > 100 µM
- GI50 (A498): 2.61 µM
- CC50 (A498; [1]): 63.8 µM
- GI50 (Hs-578T): 3.07 µM
- LC50 (concentration killing 50% of cells) (Hs-578T): > 100 µM
- GI50 (BT-549): 2.79 µM
- CC50 (BT-549; [1]): 37.2 µM
- GI50 (U-251): 2.69 µM
- CC50 (U-251; [1]): 71.4 µM
- GI50 (DU-145): 3.31 µM
- LC50 (50% lethal concentration) (DU-145): 36.7 µM
- GI50 (SK-MEL-2): 2.17 µM
- CC50 (SK-MEL-2; [1]): 42.7 µM
- GI50 (SW-620): 3.3 µM
- CC50 (SW-620; [1]): > 100 µM
- GI50 (NCI-H23): 1.95 µM
- CC50 (NCI-H23; [1]): 9.25 µM
- GI50 (CCRF-CEM): 3 µM
- CC50 (CCRF-CEM; [1]): > 100 µM
- GI50 (T47D): 2.48 µM
- LC50 (T47D): > 100 µM
- GI50 (K562): 3.51 µM
- CC50 (K562; [1]): > 100 µM
- GI50 (MOLT-4): 3.06 µM
- CC50 (MOLT-4; [1]): > 100 µM
- GI50 (SK-MEL-28): 2.44 µM
- CC50 (SK-MEL-28; [1]): 26.3 µM
